Converted amounts (≈) assume the structure as drawn. Read-outs that look alike come from different tables or passages of the source.
Legend:
[1] = Solubility in water and in 40% (w/v) HPBCD solution by UV absorbance; format: physicochemical; details: for Solubility in HPBCD Solution: 40% (w/v) HPBCD; for Solubility in HPBCD Solution / Solubility in Water: room temperature, saturated solution; for Solubility Enhancement: 40% HPBCD versus water
Procedure: To determine solubilities, test compounds were first dissolved in ethanol to prepare standard solutions with concentrations in the range 2.5–10 mg/ml, then were diluted with to 10 μg/ml with water. UV scans were obtained of the 10 μg/ml standard solutions, and the wavelength of maximum absorbance and the absorbance at the maximum absorbance wavelength were determined. For each test compound 50 μl aliquots of water and of 40% HPBCD were added to individual Eppendorf tubes containing approximately 1 mg of compound each. The tubes were heated in a 30° C. waterbath, vortexed, then centrifuged at 15,000 rpm for 5 min. This step was repeated, then the tubes were cooled to room temperature for 1 hour, then were centrifuged again. The supernatant from each tube was diluted with water into the appropriate absorbance range, and the UV absorbance was measured at the compound's absorbance maximum wavelength. The concentrations of these saturated solutions were then calculated by ratio to the 10 μg/ml ethanolic standard solutions.

[2] = tested on: six human cancer cells lines; assay: MTS growth inhibition assay, summary over all lines; format: cell-based; details: all six tumor cell lines; tested up to 20 μM
Procedure: (§1) A2780 and A2780/CP (ovarian); MCF-7 (breast); HT-29 (colon); BxPC-3 (pancreas); and A549 (lung). The human tumor cell lines (purchased from ATCC, Rockville, Md.) were cultured at 37° C. (5% CO2) in RPMI medium (RPMI; Nova Tech, Grand Island, N.Y.) containing 10% fetal bovine serum (FBS, Nova Tech). Aliquots of cells were seeded into each well of 96-well microtiter plates at a final concentration of 10^4 cells/well and incubated for 24 h prior to exposure to test compounds. […] The MTS assay is a colorimetric assay based upon the ability of viable cells to convert MTS, a novel tetrazolium compound and electron-coupling reagent, to a colored formazan product that is soluble in cell culture medium. The cell concentration is then determined by measuring the absorbance of the formazan product at 490 nm. Growth inhibition, expressed as IC50, is calculated relative to vehicle-treated control cells.

BxPC-3 = assay: MTS growth inhibition assay; format: cell-based, human; details: BxPC-3 pancreas, read-out: Growth inhibitory activity (50% effective concentration, IC50)
Procedure: as §1, with “(5% CO2) in RPMI medium (RPMI;” left out

MCF-7 = assay: MTS growth inhibition assay; format: cell-based, human; details: MCF-7 breast, read-out: Growth inhibitory activity (50% effective concentration, IC50)
Procedure: as §1, with “(5% CO2) in RPMI medium (RPMI;” left out

A549 = assay: MTS growth inhibition assay; format: cell-based, human; details: A549 lung, read-out: Growth inhibitory activity (50% effective concentration, IC50)
Procedure: as §1, with “(5% CO2) in RPMI medium (RPMI;” left out

HT-29 = assay: MTS growth inhibition assay; format: cell-based, human; details: HT-29 colon, read-out: Growth inhibitory activity (50% effective concentration, IC50)
Procedure: as §1, with “(5% CO2) in RPMI medium (RPMI;” left out

A2780 = assay: MTS growth inhibition assay; format: cell-based, human; details: A2780 (sensitive) ovarian, read-out: Growth inhibitory activity (50% effective concentration, IC50)
Procedure: as §1, with “(5% CO2) in RPMI medium (RPMI;” left out

A2780CP = assay: MTS growth inhibition assay; format: cell-based, human; details: A2780CP (resistant) ovarian, read-out: Growth inhibitory activity (50% effective concentration, IC50)
Procedure: as §1, with “(5% CO2) in RPMI medium (RPMI;” left out

[3] = Exp 1, 4 h treatment + 24 h drug-free
[4] = Exp 2, 4 h treatment + 24 h drug-free
[5] = Exp 3, 4 h treatment + 24 h drug-free

IC50 (BxPC-3; Exp 2) [µM] | IC50 (BxPC-3; Exp 3) [µM] | IC50 (BxPC-3; Mean ± SE of 3 experiments) [µM] | IC50 (MCF-7; Exp 2) [µM] | IC50 (MCF-7; Exp 3) [µM] | IC50 (MCF-7; Mean ± SE of 3 experiments) [µM] | IC50 (A549; Exp 2) [µM] | IC50 (A549; Exp 3) [µM] | IC50 (A549; Mean ± SE of 3 experiments) [µM] | IC50 (HT-29; Exp 2) [µM] | IC50 (HT-29; Exp 3) [µM] | IC50 (HT-29; Mean ± SE of 3 experiments) [µM] | IC50 (A2780; [4]) [µM] | IC50 (A2780; [5]) [µM] | IC50 (A2780; Mean ± SE of 3 experiments) [µM] | IC50 (A2780CP; Exp 2) [µM] | IC50 (A2780CP; Exp 3) [µM] | IC50 (A2780CP; Mean ± SE of 3 experiments) [µM] | SMILES | growth inhibitory activity, verbal summary [2] | IC50 (BxPC-3; Exp 1) [µM] | also measured
> 20 | > 20 | > 20 | > 20 | > 20 | > 20 | > 20 | > 20 | > 20 | > 20 | > 20 | > 20 | > 20 | > 20 | > 20 | > 20 | > 20 | > 20 | CC1(C)CC(=O)C2=C(O1)c1ccccc1C(=O)C2=O [CO-505] | inactive | > 20 | IC50 (MCF-7; Exp 1): > 20 µM; IC50 (A549; Exp 1): > 20 µM; IC50 (HT-29; Exp 1): > 20 µM; IC50 (A2780; [3]): > 20 µM; IC50 (A2780CP; Exp 1): > 20 µM
8.4 | 9.22 | 7.77 ± 1.07 | 3.99 | 3.53 | 3.39 ± 0.4 | 12.7 | 15.3 | 11.8 ± 2.28 | 13.4 | 11.2 | 14 ± 1.78 | 4.79 | 3.23 | 3.5 ± 0.68 | 3.85 | 1.53 | 2.7 ± 0.67 | CC1OC2=C(C(=O)C(=O)c3ccccc32)C1(C)C (centres unmarked) [CO-506] | activity profile similar to CO-501 | 5.69 | IC50 (MCF-7; Exp 1): 2.64 µM; IC50 (A549; Exp 1): 7.5 µM; IC50 (HT-29; Exp 1): 17.3 µM; IC50 (A2780; [3]): 2.47 µM; IC50 (A2780CP; Exp 1): 2.73 µM
> 20 | > 20 | > 20 | > 20 | > 20 | > 20 | > 20 | > 20 | > 20 | > 20 | > 20 | > 20 | > 20 | > 20 | > 20 | > 20 | > 20 | > 20 | CCCCCC(=O)OC1=CC(=O)C(=O)c2ccccc21 [CO-507, 4-hexanoyloxy-1,2-naphthoquinone] | inactive | – | IC50 (BxPC-3; Homo sapiens, Exp 1): > 20 µM; IC50 (MCF-7; Homo sapiens, MCF7, Exp 1): > 20 µM; IC50 (A549; Homo sapiens, Exp 1): > 20 µM; IC50 (HT-29; Homo sapiens, Exp 1): > 20 µM; IC50 (A2780; Homo sapiens, Exp 1, 4 h treatment + 24 h drug-free): > 20 µM; IC50 (A2780CP; Homo sapiens, A2780C/P, Exp 1): > 20 µM

SMILES | IC50 (BxPC-3; Exp 2) [µM] | IC50 (BxPC-3; Exp 3) [µM] | IC50 (BxPC-3; Mean ± SE of 3 experiments) [µM] | IC50 (MCF-7; Exp 2) [µM] | IC50 (MCF-7; Exp 3) [µM] | IC50 (MCF-7; Mean ± SE of 3 experiments) [µM] | IC50 (A549; Exp 2) [µM] | IC50 (A549; Exp 3) [µM] | IC50 (A549; Mean ± SE of 3 experiments) [µM] | IC50 (HT-29; Exp 2) [µM] | IC50 (HT-29; Exp 3) [µM] | IC50 (HT-29; Mean ± SE of 3 experiments) [µM] | IC50 (A2780; [4]) [µM] | IC50 (A2780; [5]) [µM] | IC50 (A2780; Mean ± SE of 3 experiments) [µM] | IC50 (A2780CP; Exp 2) [µM] | IC50 (A2780CP; Exp 3) [µM] | IC50 (A2780CP; Mean ± SE of 3 experiments) [µM] | growth inhibitory activity, verbal summary [2] | IC50 (BxPC-3; Exp 1) [µM] | also measured
CC1(C)CC(O)C2=C(O1)c1ccccc1C(=O)C2=O (stereo not drawn) [CO-503, 4-hydroxy β-lapachone] | > 20 | > 20 | > 20 | 19.4 | 19.3 | 19.2 ± 0.17 | 7.63 | 9.77 | 10.6 ± 1.98 | 11 | 12.1 | 12.1 ± 0.63 | 5.29 | 4.86 | 4.16 ± 0.92 | 9.38 | 14.8 | 10.5 ± 2.2 | significantly less active across all cell lines | > 20 | Solubility in HPBCD Solution [1]: 3100 µg/mL (≈ 12 mM); Solubility Enhancement [1]: 8.0 −Fold; Solubility in Water [1]: 381 µg/mL (≈ 1.48 mM); IC50 (MCF-7; Exp 1): 18.8 µM; IC50 (A549; Exp 1): 14.3 µM; IC50 (HT-29; Exp 1): 13.2 µM; IC50 (A2780; [3]): 2.35 µM; IC50 (A2780CP; Exp 1): 7.42 µM
CC(=O)OC1CC(C)(C)OC2=C1C(=O)C(=O)c1ccccc12 (stereo not drawn) [CO-504, 4-acetoxy β-lapachone] | 13.5 | 2.32 | 8.74 ± 3.33 | 4.78 | 4.28 | 3.88 ± 0.67 | 6.87 | 3.75 | 9.97 ± 4.74 | 6.67 | 3.98 | 8.25 ± 3.03 | 1.6 | 1.19 | 1.54 ± 0.19 | 4 | 2.56 | 2.41 ± 0.96 | very similar to CO-501 in inhibitory activity | 10.5 | Solubility in HPBCD Solution [1]: 2100 µg/mL (≈ 6.99 mM); Solubility Enhancement [1]: 7.4 −Fold; Solubility in Water [1]: 284 µg/mL (≈ 0.946 mM); IC50 (MCF-7; Exp 1): 2.59 µM; IC50 (A549; Exp 1): 19.3 µM; IC50 (HT-29; Exp 1): 14.1 µM; IC50 (A2780; [3]): 1.83 µM; IC50 (A2780CP; Exp 1): 0.678 µM

From patent publication US7074824B2, “Pharmaceutical compositions containing beta-lapachone, or derivatives or analogs thereof, and methods of using same” (Arqule, Inc., priority 2001, dated 2006)
